Laboratory results as given in US6958215B1, “Methods and compositions for inhibition of RNA splicing” (priority 1999, dated 2005).
[np] = N3'→P5' phosphoramidate internucleoside linkage; d = 2'-deoxy (DNA); r = 2'-OH (RNA)

Assays:
[1] = tested on: P. carinii rRNA precursor (P-h) containing a Group I intron; assay: Inhibition of self-splicing, internally radiolabeled P-h precursor, gel assay; format: biochemical, Pneumocystis carinii; conditions: 2 mM Mg2+, up to 30 μM oligonucleotide, 1 mM pG
[2] = tested on: P. carinii rRNA precursor (P-h) containing a Group I intron; assay: Fate of 5′ end radiolabeled hexamer with unlabeled P-h precursor (trans-splicing); format: biochemical, Pneumocystis carinii; conditions: 0, 2, 3, or 15 mM Mg2+
Method: The fate of the hexamers, (dA)n(dT)n(dG)n(dA)n(dC)n(rU) [Seq. ID No:1] and (dC)n(dA)n(dG)n(dT)n(dA)n(rU) [Seq. ID No:5], was also analyzed using radiolabeled hexamer and unlabeled precursor in the presence and absence of pG colactor. Approximately 300 nM unlabeled P-h precursor was reannealed at 55° C. in 3 μL of the appropriate buffer for 5 min and slow cooled to 37° C. A 3 μL solution of […] 5′ end radiolabeled hexamer in the same buffer at 37° C. was added and the reaction was allowed to proceed for 1 h. The reaction was quenched by the addition of 6 μL of 2× stop buffer and the reactants and products were separated on a 10% polyacrylamide, 8 M urea gel. The gel was dried under vacuum and the bands quantified with a Molecular Dynamics phosphorimager.

[3] = tested on: P. carinii rRNA precursor (P-h) containing a Group I intron; assay: Oligonucleotide concentration dependence of cis- and trans-splicing, 3′ end radiolabeled P-h precursor; format: biochemical, Pneumocystis carinii; conditions: up to 30 μM oligonucleotide, 4 mM Mg2+
C-10/1x ribozyme = assay: Binding to C-10/1x ribozyme, competitive band-shift native electrophoresis; design: species or system Candida albicans; conditions: H15Mg buffer; for Binding to C-10/1x ΔG*37,C-10/1x: calculated from Kd, T = 310 K; for Tertiary Stability BETI (binding enhanced by tertiary interactions): calculated using Kd values; for Tertiary Stability ααG°37,BETI: difference in ΔG°37 for binding to C-10/1x and r(GGAGGC)
Method: C-10/1x is a Candida albicans rRNA Group I ribozyme. Dissociation constants for 5′ exon oligonucleotide mimics which bind to the C-10/1x ribozyme were measured by competitive band-shift native electrophoresis using methods described in Testa et al., Biochemistry 37:9379-9385 (1998). The results for a variety of oligonucleotides complementary or containing a one base mismatch to the C-10/1x 5′ exon guide sequence are shown in Table 2.

r(GGAGGC) = assay: Base-pairing to r(GGAGGC), thermodynamic melts; format: binding; conditions: H15Mg buffer; for Kd: calculated from ΔG°37, read-out: Binding to r(GGAGGC) Kd,B.P.

Row | Substance | increase in the 5′ exon-intron product [1] | reactivity of 5′ radiolabeled hexamer with unlabeled precursor [2] | formation of trans-spliced product [3] | Kd (C-10/1x ribozyme) [µM] | Binding to C-10/1x ΔG*37,C-10/1x (C-10/1x ribozyme) [kcal/mol] | Tertiary Stability BETI (binding enhanced by tertiary interactions) (C-10/1x ribozyme) | Tertiary Stability ααG°37,BETI (C-10/1x ribozyme) [kcal/mol] | Binding to r(GGAGGC) ΔG°37,B.P. (r(GGAGGC)) [kcal/mol] | Kd (r(GGAGGC)) [µM]
1 | (dC)n(dA)n(dG)n(dT)n(dA)n(rU) (CAGTAU; sugars from the 5' end d5 r1, all [np], methylation of C not given here) [reference compound] | does not occur | not reactive | not formed | – | – | – | – | – | –
2 | r(GACUCU) [reference compound] | – | – | – | 0.0069 | -11.6 | 4800000 | -9.5 | -2.1 | 600
3 | r(GCCUCU) [reference compound] | – | – | – | 0.0007 | -13.0 | 1500 | -4.5 | -8.5 | 100
